# Assay results from patent US20050197364A1, “Amide compounds as ion channel ligands and uses thereof” (priority 2003, published 2005).
# Test system: VR1 receptor
# Assay: High throughput calcium imaging assay (Fura2, Flex Station) of VR1 antagonists, pH 5.1 stimulus
# Type: cell-based
# Settings: 1 uM compound; inhibition of calcium ion influx induced by capsaicin stimulation
row,Structure (SMILES),% Inhibition @ 1 uM
1,O=C(Nc1ccc(C2CCCCC2)cc1)c1ccc(-c2ncccc2Cl)cn1 [Compound 303],+ + + + (“+ + + +” compound exhibited 75% or greater inhibition of calcium ion influx induced by capsaicin stimulation.)
2,CCCCc1ccc(NC(=O)c2ccc(-c3ncccc3Cl)c(F)c2)cc1 [Compound 127],+ + + + (compound exhibited 75% or greater inhibition of calcium ion influx induced by capsaicin stimulation)
3,O=C(Nc1ccc(F)c(F)c1)c1ccc(-c2ncccc2Cl)c(F)c1 [Compound 178],+ + + (compound exhibited 50-75% inhibition of calcium ion influx induced by capsaicin stimulation)
4,O=C(Nc1ccc2cc[nH]c2c1)c1ccc(-c2ncccc2Cl)cn1 [Compound 340],+ + + + (“+ + + +” compound exhibited 75% or greater inhibition of calcium ion influx induced by capsaicin stimulation.)
5,COc1cc(NC(=O)c2ccc(-c3ncccc3Cl)cn2)cc(OC)c1OC [Compound 339],+ (“+” compound exhibited 0-25% inhibition of calcium ion influx induced by capsaicin stimulation.)
6,COc1ccc(NC(=O)c2ccc(-c3ncccc3Cl)c(OC)c2)cc1OC [Compound 240],+ (“+” compound exhibited 0-25% inhibition of calcium ion influx induced by capsaicin stimulation.)
7,COc1ccc(NC(=O)c2ccc(-c3ncccc3Cl)c(F)c2)cn1 [Compound 153],+ + (compound exhibited 25-50% inhibition of calcium ion influx induced by capsaicin stimulation)
8,N#Cc1ccccc1NC(=O)c1ccc(-c2ncccc2Cl)cn1 [Compound 292],+ (“+” compound exhibited 0-25% inhibition of calcium ion influx induced by capsaicin stimulation.)
9,COc1ccc(NC(=O)c2ccc(-c3ncccc3Cl)cc2)cc1O [Compound 271],+ (“+” compound exhibited 0-25% inhibition of calcium ion influx induced by capsaicin stimulation.)
10,O=C(Nc1ccc(N2CCNCC2)c(Cl)c1)c1ccc(-c2ncccc2Cl)c(F)c1 [Compound 183],+ + + + (compound exhibited 75% or greater inhibition of calcium ion influx induced by capsaicin stimulation)
11,COc1cc(C(=O)Nc2nccs2)ccc1-c1ncccc1Cl [Compound 235],+ (“+” compound exhibited 0-25% inhibition of calcium ion influx induced by capsaicin stimulation.)
12,N#Cc1cccc(NC(=O)c2ccc(-c3ncccc3Cl)cc2)c1 [Compound 22],+ (compound exhibited 0-25% inhibition of calcium ion influx induced by capsaicin stimulation)
13,Cc1cc(C)nc(NC(=O)c2ccc(-c3ncccc3Cl)cn2)c1 [Compound 312],+ (“+” compound exhibited 0-25% inhibition of calcium ion influx induced by capsaicin stimulation.)
14,COc1cccc(NC(=O)c2ccc(-c3ncccc3Cl)c(OC)c2)c1 [Compound 196],+ + (compound exhibited 25-50% inhibition of calcium ion influx induced by capsaicin stimulation)
15,COc1cc(C(=O)Nc2cccc(C#N)c2)ccc1-c1ncccc1Cl [Compound 201],+ + + + (“+ + + +” compound exhibited 75% or greater inhibition of calcium ion influx induced by capsaicin stimulation.)
16,O=C(Nc1ccc(OC(F)(F)F)cc1)c1ccc(-c2ncccc2Cl)cn1 [Compound 343],+ (“+” compound exhibited 0-25% inhibition of calcium ion influx induced by capsaicin stimulation.)
17,Cc1cccnc1NC(=O)c1ccc(-c2ncccc2Cl)cc1F [Compound 95],+ (compound exhibited 0-25% inhibition of calcium ion influx induced by capsaicin stimulation)
18,O=C(Nc1cccnc1)c1ccc(-c2ncccc2Cl)cc1 [Compound 8],+ + + + (compound exhibited 75% or greater inhibition of calcium ion influx induced by capsaicin stimulation)

row,Structure (SMILES),% Inhibition @ 1 uM
1,O=C(Nc1ccccc1CCO)c1ccc(-c2ncccc2Cl)cc1 [Compound 23],+ + + (compound exhibited 50-75% inhibition of calcium ion influx induced by capsaicin stimulation)
2,CN(C)c1cccc(NC(=O)c2ccc(-c3ncccc3Cl)cc2)c1 [Compound 43],+ + + + (compound exhibited 75% or greater inhibition of calcium ion influx induced by capsaicin stimulation)
3,COc1cc(C(=O)Nc2cc(C)cc(C)n2)ccc1-c1ncccc1Cl [Compound 217],+ (“+” compound exhibited 0-25% inhibition of calcium ion influx induced by capsaicin stimulation.)
4,COc1cc(C(=O)Nc2ccc(-c3cnc[nH]3)cc2)ccc1-c1ncccc1Cl [Compound 260],+ + + (“+ + +” compound exhibited 50-75% inhibition of calcium ion influx induced by capsaicin stimulation.)
5,COc1ccc(NC(=O)c2ccc(-c3ncccc3Cl)c(OC)c2)cc1Cl [Compound 212],+ + + (“+ + +” compound exhibited 50-75% inhibition of calcium ion influx induced by capsaicin stimulation.)
6,CC1CCCc2ccc(NC(=O)c3ccc(-c4ncccc4Cl)c(F)c3)cc21 (stereo not drawn) [Compound 186],+ (compound exhibited 0-25% inhibition of calcium ion influx induced by capsaicin stimulation)
7,COc1cc(C(=O)Nc2cccc(C(=O)O)c2)ccc1-c1ncccc1Cl [Compound 241],+ (“+” compound exhibited 0-25% inhibition of calcium ion influx induced by capsaicin stimulation.)
8,CC(C)Oc1cccc(NC(=O)c2ccc(-c3ncccc3Cl)c(F)c2)c1 [Compound 177],+ (compound exhibited 0-25% inhibition of calcium ion influx induced by capsaicin stimulation)
9,COc1cccc(NC(=O)c2ccc(-c3ncccc3Cl)c(F)c2)c1 [Compound 119],+ (compound exhibited 0-25% inhibition of calcium ion influx induced by capsaicin stimulation)
10,COc1cc(C(=O)Nc2ccc(Cl)c(C(=O)O)c2)ccc1-c1ncccc1Cl [Compound 242],+ + + + (“+ + + +” compound exhibited 75% or greater inhibition of calcium ion influx induced by capsaicin stimulation.)
11,N#Cc1cccc(NC(=O)c2ccc(-c3ncccc3Cl)c(F)c2)c1 [Compound 124],+ + + + (compound exhibited 75% or greater inhibition of calcium ion influx induced by capsaicin stimulation)
12,COc1cc(C(=O)Nc2cccc(Cl)c2Cl)ccc1-c1ncccc1Cl [Compound 199],+ + + + (“+ + + +” compound exhibited 75% or greater inhibition of calcium ion influx induced by capsaicin stimulation.)
13,O=C(Nc1ccc2cn[nH]c2c1)c1ccc(-c2ncccc2Cl)cc1 [Compound 273],+ + (“+ +” compound exhibited 25-50% inhibition of calcium ion influx induced by capsaicin stimulation.)
14,O=C(Nc1ccncn1)c1ccc(-c2ncccc2Cl)cn1 [Compound 319],+ + + + (“+ + + +” compound exhibited 75% or greater inhibition of calcium ion influx induced by capsaicin stimulation.)
15,CCOc1cccc(NC(=O)c2ccc(-c3ncccc3Cl)cn2)c1 [Compound 347],+ + + + (“+ + + +” compound exhibited 75% or greater inhibition of calcium ion influx induced by capsaicin stimulation.)
16,O=C(Nc1ccc(C(F)(F)F)cn1)c1ccc(-c2ncccc2Cl)cc1 [Compound 50],+ + (compound exhibited 25-50% inhibition of calcium ion influx induced by capsaicin stimulation)
17,COc1ccc(NC(=O)c2ccc(-c3ncccc3Cl)cc2F)cn1 [Compound 103],+ (compound exhibited 0-25% inhibition of calcium ion influx induced by capsaicin stimulation)
18,COc1cc(C(=O)Nc2ccc(Cl)cc2S(=O)(=O)O)ccc1-c1ncccc1Cl [Compound 261],+ (“+” compound exhibited 0-25% inhibition of calcium ion influx induced by capsaicin stimulation.)
